Experimental data from paper PMC5218480 (PLoS ONE, 2017).

Test system: MV-4-11 cells
Assay: Gene expression microarray analysis (Affymetrix PrimeView) and GSEA
Assay type: cell-based, human
Parameters: RFU PODN (11730768_x_at) / Fold change /veh PODN (11730768_x_at) / RFU LINC00158 (11744669_a_at) / Fold change /veh LINC00158 (11744669_a_at) / RFU DUSP10 (11751237_a_at) / Fold change /veh DUSP10 (11751237_a_at) / RFU ID3 (11757404_x_at) / Fold change /veh ID3 (11757404_x_at) / RFU PLEKHG5 (11737974_s_at) / Fold change /veh PLEKHG5 (11737974_s_at) / RFU LRRC4B (11730491_at) / Fold change /veh LRRC4B (11730491_at) / RFU GIMAP4 (11747438_a_at) / Fold change /veh GIMAP4 (11747438_a_at) / RFU KRT8 (11758183_x_at) / Fold change /veh KRT8 (11758183_x_at) / RFU CNN1 (11734310_a_at) / Fold change /veh CNN1 (11734310_a_at) / RFU VPS37D (11726825_at) / Fold change /veh VPS37D (11726825_at) / RFU C10orf10 (11716522_x_at) / Fold change /veh C10orf10 (11716522_x_at) / RFU KIR2DL2 /// KIR2DL4 /// KIR2DL5A /// KIR2DL5B /// KIR2DS1 /// KIR2DS2 /// KIR2DS3 /// KIR2DS4 /// KIR3DL3 /// KIR3DL3 /// KIR3DS1 (11738374_at) / Fold change /veh KIR2DL2 /// KIR2DL4 /// KIR2DL5A /// KIR2DL5B /// KIR2DS1 /// KIR2DS2 /// KIR2DS3 /// KIR2DS4 /// KIR3DL3 /// KIR3DL3 /// KIR3DS1 (11738374_at) / RFU C1QL1 (11718748_at) / Fold change /veh C1QL1 (11718748_at) / RFU TMPRSS4 (11747572_a_at) / Fold change /veh TMPRSS4 (11747572_a_at) / RFU HAMP (11756126_x_at) / Fold change /veh HAMP (11756126_x_at) / RFU RNFT2 (11725882_a_at) / Fold change /veh RNFT2 (11725882_a_at) / RFU NR4A2 (11747474_a_at) / Fold change /veh NR4A2 (11747474_a_at) / RFU ABCC12 (11746883_a_at) / Fold change /veh ABCC12 (11746883_a_at) / RFU TMEM136 (11760407_x_at) / Fold change /veh TMEM136 (11760407_x_at) / RFU CLDN22 /// WWC2 (11732394_at) / Fold change /veh CLDN22 /// WWC2 (11732394_at) / RFU HLA-DPB1 (11760878_x_at) / Fold change /veh HLA-DPB1 (11760878_x_at) / RFU SPINT1 (11716480_a_at) / Fold change /veh SPINT1 (11716480_a_at) / RFU GAP43 (11754022_s_at) / Fold change /veh GAP43 (11754022_s_at) / RFU A4GNT (11735810_at) / Fold change /veh A4GNT (11735810_at) / RFU PRB3 (11715151_x_at) / Fold change /veh PRB3 (11715151_x_at) / RFU TUBB4B (11761932_at) / Fold change /veh TUBB4B (11761932_at) / RFU CAPN14 (11732068_a_at) / Fold change /veh CAPN14 (11732068_a_at) / RFU TMCC2 (11721928_a_at) / Fold change /veh TMCC2 (11721928_a_at) / RFU IRGQ (11745062_a_at) / Fold change /veh IRGQ (11745062_a_at) / RFU FAM174B (11720279_a_at) / Fold change /veh FAM174B (11720279_a_at) / RFU TMPRSS4 (11748680_a_at) / Fold change /veh TMPRSS4 (11748680_a_at) / RFU FAM212B (11763350_a_at) / Fold change /veh FAM212B (11763350_a_at) / RFU PLEKHG5 (11743358_a_at) / Fold change /veh PLEKHG5 (11743358_a_at) / RFU ZSCAN30 (11745921_a_at) / Fold change /veh ZSCAN30 (11745921_a_at) / RFU CMKLR1 (11741424_a_at) / Fold change /veh CMKLR1 (11741424_a_at) / RFU LOC101060620 /// MAPK8IP1 (11723275_at) / Fold change /veh LOC101060620 /// MAPK8IP1 (11723275_at) / RFU SPTSSB (11747773_x_at) / Fold change /veh SPTSSB (11747773_x_at) / RFU PRSS12 (11739890_at) / Fold change /veh PRSS12 (11739890_at) / RFU BIN1 (11741810_x_at) / Fold change /veh BIN1 (11741810_x_at) / RFU WNT11 (11732464_a_at) / Fold change /veh WNT11 (11732464_a_at) / RFU C10orf10 (11716521_a_at) / Fold change /veh C10orf10 (11716521_a_at) / RFU C5orf56 (11738089_at) / Fold change /veh C5orf56 (11738089_at) / RFU CYB561 (11721691_x_at) / Fold change /veh CYB561 (11721691_x_at) / RFU ANKRD19P (11752326_a_at) / Fold change /veh ANKRD19P (11752326_a_at) / RFU OR2T12 /// OR2T33 /// OR2T8 (11738714_s_at) / Fold change /veh OR2T12 /// OR2T33 /// OR2T8 (11738714_s_at) / RFU VCAN (11748164_a_at) / Fold change /veh VCAN (11748164_a_at) / RFU JSRP1 (11732532_at) / Fold change /veh JSRP1 (11732532_at) / RFU KRTAP10-11 (11738290_x_at) / Fold change /veh KRTAP10-11 (11738290_x_at) / RFU MYO3A (11730013_a_at) / Fold change /veh MYO3A (11730013_a_at) / RFU EBF3 (11725865_a_at) / Fold change /veh EBF3 (11725865_a_at) / RFU CAMK2N1 (11719241_x_at) / Fold change /veh CAMK2N1 (11719241_x_at) / RFU C5orf56 (11738088_a_at) / Fold change /veh C5orf56 (11738088_a_at) / RFU OLFML3 (11715873_a_at) / Fold change /veh OLFML3 (11715873_a_at) / RFU LOC100653217 /// NTM (11731650_a_at) / Fold change /veh LOC100653217 /// NTM (11731650_a_at) / RFU MAPK11 (11762145_a_at) / Fold change /veh MAPK11 (11762145_a_at) / RFU FIZ1 (11724087_x_at) / Fold change /veh FIZ1 (11724087_x_at) / RFU OASL (11726364_x_at) / Fold change /veh OASL (11726364_x_at) / RFU SOX15 (11748057_x_at) / Fold change /veh SOX15 (11748057_x_at) / RFU CD79A (11719716_a_at) / Fold change /veh CD79A (11719716_a_at) / RFU HIST1H1D (11736915_at) / Fold change /veh HIST1H1D (11736915_at) / RFU CASKIN2 (11723855_a_at) / Fold change /veh CASKIN2 (11723855_a_at) / RFU LOC730098 (11760151_x_at) / Fold change /veh LOC730098 (11760151_x_at) / RFU OR4N2 (11742367_at) / Fold change /veh OR4N2 (11742367_at) / RFU PRRT2 (11749266_a_at) / Fold change /veh PRRT2 (11749266_a_at) / RFU SNX32 (11753110_a_at) / Fold change /veh SNX32 (11753110_a_at) / RFU CDHR5 (11726645_a_at) / Fold change /veh CDHR5 (11726645_a_at) / RFU RCAN1 (11760418_a_at) / Fold change /veh RCAN1 (11760418_a_at) / RFU FAM167A (11723789_a_at) / Fold change /veh FAM167A (11723789_a_at) / RFU FAM26E (11764081_at) / Fold change /veh FAM26E (11764081_at) / RFU ISYNA1 (11749810_s_at) / Fold change /veh ISYNA1 (11749810_s_at) / RFU ACY1 (11761880_at) / Fold change /veh ACY1 (11761880_at) / RFU 11764098_at / Fold change /veh 11764098_at / RFU SAMD14 (11745864_x_at) / Fold change /veh SAMD14 (11745864_x_at) / RFU NPB (11741838_a_at) / Fold change /veh NPB (11741838_a_at) / RFU TMPRSS6 (11731388_a_at) / Fold change /veh TMPRSS6 (11731388_a_at) / RFU KRTAP10-2 (11738614_at) / Fold change /veh KRTAP10-2 (11738614_at) / RFU ARHGAP8 /// PRR5-ARHGAP8 (11727945_x_at) / Fold change /veh ARHGAP8 /// PRR5-ARHGAP8 (11727945_x_at) / RFU KRTAP5-7 /// NADSYN1 (11734609_at) / Fold change /veh KRTAP5-7 /// NADSYN1 (11734609_at) / RFU RASL12 (11751679_a_at) / Fold change /veh RASL12 (11751679_a_at) / RFU CDKN2B (11736163_a_at) / Fold change /veh CDKN2B (11736163_a_at) / RFU PRF1 (11729649_at) / Fold change /veh PRF1 (11729649_at) / RFU, ZNF638 /// ZNF638-IT1 / Fold change vs veh, ZNF638 /// ZNF638-IT1 / RFU, PANK3 / Fold change vs veh, PANK3 / RFU, SH3YL1 / Fold change vs veh, SH3YL1 / RFU, ZEB2 / Fold change vs veh, ZEB2 / RFU, NRIP1 / Fold change vs veh, NRIP1 / RFU, PTTG1IP / Fold change vs veh, PTTG1IP / RFU, CAPN2 / Fold change vs veh, CAPN2 / RFU, MED14 / Fold change vs veh, MED14 / RFU, SNORA58 / Fold change vs veh, SNORA58 / RFU, C1orf63 / Fold change vs veh, C1orf63 / RFU, LRRFIP1 / Fold change vs veh, LRRFIP1 / RFU, NDUFAF7 / Fold change vs veh, NDUFAF7 / RFU, SLC12A2 / Fold change vs veh, SLC12A2 / RFU, IBTK / Fold change vs veh, IBTK / RFU, ESF1 / Fold change vs veh, ESF1 / Fold change vs veh, TMEM50B / RFU, TAOK1 / Fold change vs veh, TAOK1 / RFU, ACBD3 / Fold change vs veh, ACBD3 / RFU, TMA16 / Fold change vs veh, TMA16 / RFU, RWDD3 / Fold change vs veh, RWDD3 / RFU, BCAT1 / Fold change vs veh, BCAT1 / RFU, EDEM3 / Fold change vs veh, EDEM3 / RFU, TMEM33 / Fold change vs veh, TMEM33 / RFU, WDR75 / Fold change vs veh, WDR75 / RFU, AHCTF1 / Fold change vs veh, AHCTF1 / RFU, TFRC / Fold change vs veh, TFRC / RFU, ZDHHC17 / Fold change vs veh, ZDHHC17 / RFU, NOM1 / Fold change vs veh, NOM1 / RFU, ARL8B / Fold change vs veh, ARL8B / RFU, ZBTB11 / Fold change vs veh, ZBTB11 / RFU, TAMM41 / Fold change vs veh, TAMM41 / RFU, KIAA1704 /// LOC100996395 / Fold change vs veh, KIAA1704 /// LOC100996395 / RFU, ING1 / Fold change vs veh, ING1 / RFU, TRMT61B / Fold change vs veh, TRMT61B / RFU, FUBP3 / Fold change vs veh, FUBP3 / RFU, TP53 / Fold change vs veh, TP53 / RFU, TNKS2 / Fold change vs veh, TNKS2 / RFU, ZFP14 / Fold change vs veh, ZFP14 / RFU, ACTR2 / Fold change vs veh, ACTR2 / RFU, PPP3R1 / Fold change vs veh, PPP3R1 / RFU, PIK3R1 / Fold change vs veh, PIK3R1 / RFU, HNRNPA1 / Fold change vs veh, HNRNPA1 / RFU, RNF170 / Fold change vs veh, RNF170 / RFU, ZNF28 / Fold change vs veh, ZNF28 / RFU, RNGTT / Fold change vs veh, RNGTT / RFU, OGT / Fold change vs veh, OGT / RFU, BRD1 / Fold change vs veh, BRD1 / RFU, MARS / Fold change vs veh, MARS / RFU, ZNF655 / Fold change vs veh, ZNF655 / RFU, FAHD1 / Fold change vs veh, FAHD1 / RFU, BDP1 / Fold change vs veh, BDP1 / RFU, LRRCC1 / Fold change vs veh, LRRCC1 / RFU, ARID1A / Fold change vs veh, ARID1A / RFU, ZNF146 / Fold change vs veh, ZNF146 / RFU, ZNF330 / Fold change vs veh, ZNF330 / RFU, GPN3 / Fold change vs veh, GPN3 / RFU, C9orf123 / Fold change vs veh, C9orf123 / RFU, N4BP2L2 / Fold change vs veh, N4BP2L2 / RFU, ARFIP1 / Fold change vs veh, ARFIP1 / RFU, FAM179B / Fold change vs veh, FAM179B / RFU, BCL10 / Fold change vs veh, BCL10 / RFU, UHRF1BP1L / Fold change vs veh, UHRF1BP1L / RFU, BET1 / Fold change vs veh, BET1 / RFU, CNOT2 / Fold change vs veh, CNOT2 / RFU, ZNF268 / Fold change vs veh, ZNF268 / Fold change vs veh, ZNF507 / RFU, DGCR2 / Fold change vs veh, DGCR2 / RFU, WDSUB1 / Fold change vs veh, WDSUB1 / Fold change vs veh, HSP90B1 /// MIR3652 / RFU, ADSS / Fold change vs veh, ADSS / RFU, GK / Fold change vs veh, GK / RFU, ZNF148 / Fold change vs veh, ZNF148 / RFU, TAF9 / Fold change vs veh, TAF9 / RFU, SLC1A5 / Fold change vs veh, SLC1A5 / RFU, SLMO2 / Fold change vs veh, SLMO2 / RFU, ABCC4 / Fold change vs veh, ABCC4 / RFU, LOC101060439 /// RAP1B / Fold change vs veh, LOC101060439 /// RAP1B / RFU, RFX7 / Fold change vs veh, RFX7 / RFU, GTPBP10 / Fold change vs veh, GTPBP10 / RFU, CNEP1R1 / Fold change vs veh, CNEP1R1 / RFU, BIVM-ERCC5 /// ERCC5 / Fold change vs veh, BIVM-ERCC5 /// ERCC5 / RFU, ILF3 / Fold change vs veh, ILF3 / RFU 11762660_at / Fold change /veh 11762660_at / RFU VCAN (11757783_s_at) / Fold change /veh VCAN (11757783_s_at) / RFU DDX43 (11728927_at) / Fold change /veh DDX43 (11728927_at) / RFU KRT8 (11758188_x_at) / Fold change /veh KRT8 (11758188_x_at) / RFU NKD1 (11759106_at) / Fold change /veh NKD1 (11759106_at) / RFU SRD5A1 (11742802_a_at) / Fold change /veh SRD5A1 (11742802_a_at) / RFU TPSAB1 /// TPSB2 (11721975_s_at) / Fold change /veh TPSAB1 /// TPSB2 (11721975_s_at) / RFU GSTM3 (11746129_a_at) / Fold change /veh GSTM3 (11746129_a_at) / RFU IL23R (11737362_x_at) / Fold change /veh IL23R (11737362_x_at) / RFU TMEM51 (11727254_a_at) / Fold change /veh TMEM51 (11727254_a_at) / RFU PIWIL2 (11732686_x_at) / Fold change /veh PIWIL2 (11732686_x_at) / RFU ORM1 (11744905_x_at) / Fold change /veh ORM1 (11744905_x_at) / RFU CCDC152 (11743942_at) / Fold change /veh CCDC152 (11743942_at) / RFU ECM1 (11717891_a_at) / Fold change /veh ECM1 (11717891_a_at) / RFU IL23R (11748794_a_at) / Fold change /veh IL23R (11748794_a_at) / RFU TNFAIP8L3 (11732012_x_at) / Fold change /veh TNFAIP8L3 (11732012_x_at) / RFU MBOAT4 (11741988_at) / Fold change /veh MBOAT4 (11741988_at) / RFU 11764193_at / Fold change /veh 11764193_at / RFU TMEM53 (11763286_at) / Fold change /veh TMEM53 (11763286_at) / RFU MAGEB2 (11727129_at) / Fold change /veh MAGEB2 (11727129_at) / RFU TMEM200A (11744735_a_at) / Fold change /veh TMEM200A (11744735_a_at) / RFU CCDC152 (11751479_a_at) / Fold change /veh CCDC152 (11751479_a_at) / RFU FAM211A (11726209_a_at) / Fold change /veh FAM211A (11726209_a_at) / RFU RGS16 (11746705_a_at) / Fold change /veh RGS16 (11746705_a_at) / RFU VCAN (11755009_s_at) / Fold change /veh VCAN (11755009_s_at) / RFU RHOB (11743442_s_at) / Fold change /veh RHOB (11743442_s_at) / RFU RGS16 (11720943_a_at) / Fold change /veh RGS16 (11720943_a_at) / RFU RGS16 (11720944_at) / Fold change /veh RGS16 (11720944_at) / RFU, VPS4B / Fold change vs veh, VPS4B / RFU, CREB1 / Fold change vs veh, CREB1 / RFU, DNAJC13 / Fold change vs veh, DNAJC13 / RFU, GNAQ / Fold change vs veh, GNAQ / RFU, CDK5R1 / Fold change vs veh, CDK5R1 / RFU, ZRANB3 / Fold change vs veh, ZRANB3 / RFU, CUL4A / Fold change vs veh, CUL4A / RFU, CCNY / Fold change vs veh, CCNY / RFU, UFL1 / Fold change vs veh, UFL1 / RFU, COG3 / Fold change vs veh, COG3 / RFU, DIAPH2 / Fold change vs veh, DIAPH2 / RFU, SKA2 / Fold change vs veh, SKA2 / RFU, AFF3 / Fold change vs veh, AFF3 / RFU, LMF1 / Fold change vs veh, LMF1 / RFU, IPO11 / Fold change vs veh, IPO11 / RFU, DFFB / Fold change vs veh, DFFB / RFU, FOXP1 / Fold change vs veh, FOXP1 / RFU, CARD8 / Fold change vs veh, CARD8 / RFU, STRN3 / Fold change vs veh, STRN3 / RFU, ADK / Fold change vs veh, ADK / RFU, RASSF2 / Fold change vs veh, RASSF2 / RFU, WIPF1 / Fold change vs veh, WIPF1 / RFU, LARP1B / Fold change vs veh, LARP1B / RFU, RASA1 / Fold change vs veh, RASA1 / RFU, RB1 / Fold change vs veh, RB1 / RFU, PPFIA1 / Fold change vs veh, PPFIA1 / RFU, MAT2A / Fold change vs veh, MAT2A / RFU, CCT5 / Fold change vs veh, CCT5 / RFU, WDR92 / Fold change vs veh, WDR92 / RFU, CUX1 / Fold change vs veh, CUX1 / RFU, TTC7A / Fold change vs veh, TTC7A / RFU, TMEM135 / Fold change vs veh, TMEM135 / RFU, DEPTOR / Fold change vs veh, DEPTOR / RFU, CPM / Fold change vs veh, CPM / RFU, DNAJB6 / Fold change vs veh, DNAJB6 / RFU, CACNA2D3 / Fold change vs veh, CACNA2D3 / RFU, DTX4 / Fold change vs veh, DTX4 / RFU, TFCP2 / Fold change vs veh, TFCP2 / RFU, GMCL1 /// GMCL1P1 / Fold change vs veh, GMCL1 /// GMCL1P1 / RFU, AEBP2 / Fold change vs veh, AEBP2 / RFU, SNHG1 /// SNORD22 /// SNORD25 /// SNORD26 /// SNORD27 /// SNORD28 /// SNORD29 /// SNORD31 / Fold change vs veh, SNHG1 /// SNORD22 /// SNORD25 /// SNORD26 /// SNORD27 /// SNORD28 /// SNORD29 /// SNORD31 / Fold change (Aza/veh), C12orf56 (ProbeSet 11735607_a_at) / Fold change (ACY-1035/veh), C12orf56 (ProbeSet 11735607_a_at) / Fold change (Aza/veh), FGFR1OP (ProbeSet 11751329_s_at) / Fold change (ACY-1035/veh), FGFR1OP (ProbeSet 11751329_s_at) / Fold change (Aza/veh), VPS36 (ProbeSet 11739960_a_at) / Fold change (ACY-1035/veh), VPS36 (ProbeSet 11739960_a_at) / RFU SYPL1 (11715823_x_at) / Fold change /veh SYPL1 (11715823_x_at) / RFU IGFBP7 (11715501_s_at) / Fold change /veh IGFBP7 (11715501_s_at) / RFU REEP3 (11722064_at) / Fold change /veh REEP3 (11722064_at) / RFU IGLL1 (11728026_x_at) / Fold change /veh IGLL1 (11728026_x_at): dose or concentration left out as unconfirmed
Settings: MV-4-11 cells, 48 hours

Question: For `Nc1ccc(-c2cccs2)cc1NC(=O)c1ccc2c(c1)cc(C1CC1)n2CCN1CCOCC1` [ACY-1035], which “Fold change /veh ABCC12 (11746883_a_at)” value is on record?
Answer: 1.17
